Assay results reported in ChEMBL document CHEMBL5653631, “A Potent and Selective ULK1 Inhibitor Suppresses Autophagy and Sensitizes Cancer Cells to Nutrient Stress” (iScience, 2018).

How the values were obtained:
[1] = target: T1, Dual specificity protein kinase TTK (Homo sapiens) (UniProt P33981); test: Inhibition of human recombinant TTK at 40 nM related to control ULK1
T1 sequence (whole entry): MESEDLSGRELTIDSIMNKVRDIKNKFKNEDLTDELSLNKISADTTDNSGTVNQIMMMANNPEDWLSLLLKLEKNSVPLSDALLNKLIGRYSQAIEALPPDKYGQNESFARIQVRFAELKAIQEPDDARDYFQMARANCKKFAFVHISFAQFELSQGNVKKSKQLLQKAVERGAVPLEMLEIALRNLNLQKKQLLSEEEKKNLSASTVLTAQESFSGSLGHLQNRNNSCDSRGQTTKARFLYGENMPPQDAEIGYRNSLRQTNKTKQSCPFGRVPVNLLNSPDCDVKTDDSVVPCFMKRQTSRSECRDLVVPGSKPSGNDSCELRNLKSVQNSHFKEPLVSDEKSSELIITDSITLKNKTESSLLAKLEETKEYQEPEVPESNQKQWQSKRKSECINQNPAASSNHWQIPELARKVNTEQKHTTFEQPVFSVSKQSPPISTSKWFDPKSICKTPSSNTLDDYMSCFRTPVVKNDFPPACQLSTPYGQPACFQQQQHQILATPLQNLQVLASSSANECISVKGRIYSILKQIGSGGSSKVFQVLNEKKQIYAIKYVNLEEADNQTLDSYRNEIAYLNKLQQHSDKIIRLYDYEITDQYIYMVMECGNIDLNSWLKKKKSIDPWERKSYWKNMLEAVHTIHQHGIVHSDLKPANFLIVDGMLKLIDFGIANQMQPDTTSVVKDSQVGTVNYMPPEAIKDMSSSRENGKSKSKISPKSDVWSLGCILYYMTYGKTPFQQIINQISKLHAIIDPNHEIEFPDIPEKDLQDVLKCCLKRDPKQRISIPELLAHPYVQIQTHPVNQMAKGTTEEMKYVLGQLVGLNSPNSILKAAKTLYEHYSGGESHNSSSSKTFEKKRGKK

[2] = target: T2, Serine/threonine-protein kinase NLK (Homo sapiens) (UniProt Q9UBE8); test: Inhibition of human recombinant NLK at 40 nM related to control ULK1
T2 sequence (whole entry): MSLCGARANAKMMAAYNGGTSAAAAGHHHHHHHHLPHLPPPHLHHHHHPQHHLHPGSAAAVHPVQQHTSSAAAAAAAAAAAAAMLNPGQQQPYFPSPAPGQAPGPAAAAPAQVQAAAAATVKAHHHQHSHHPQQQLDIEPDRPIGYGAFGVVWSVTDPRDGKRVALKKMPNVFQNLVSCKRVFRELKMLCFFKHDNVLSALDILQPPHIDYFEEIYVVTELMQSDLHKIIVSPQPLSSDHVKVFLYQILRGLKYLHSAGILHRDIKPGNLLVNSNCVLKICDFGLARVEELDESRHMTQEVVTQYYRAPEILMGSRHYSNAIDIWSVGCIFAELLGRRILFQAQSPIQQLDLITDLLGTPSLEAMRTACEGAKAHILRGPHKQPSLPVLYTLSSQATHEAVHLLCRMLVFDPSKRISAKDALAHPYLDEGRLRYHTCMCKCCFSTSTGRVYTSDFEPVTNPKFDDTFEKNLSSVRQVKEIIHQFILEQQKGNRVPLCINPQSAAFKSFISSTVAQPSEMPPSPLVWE

[3] = target: Ephrin type-A receptor 7 (Homo sapiens) (UniProt Q15375); test: Inhibition of human recombinant EphA7 at 40 nM related to control ULK1
[4] = target: Ribosomal protein S6 kinase alpha-6 (Homo sapiens) (UniProt Q9UK32); test: Inhibition of human recombinant RSK4 at 40 nM related to control ULK1
[5] = target: T3, Serine/threonine-protein kinase Nek11 (Homo sapiens) (UniProt Q8NG66); test: Inhibition of human recombinant NEK11 at 40 nM in presence of ATP by radiometric assay relative to control
T3 sequence (whole entry): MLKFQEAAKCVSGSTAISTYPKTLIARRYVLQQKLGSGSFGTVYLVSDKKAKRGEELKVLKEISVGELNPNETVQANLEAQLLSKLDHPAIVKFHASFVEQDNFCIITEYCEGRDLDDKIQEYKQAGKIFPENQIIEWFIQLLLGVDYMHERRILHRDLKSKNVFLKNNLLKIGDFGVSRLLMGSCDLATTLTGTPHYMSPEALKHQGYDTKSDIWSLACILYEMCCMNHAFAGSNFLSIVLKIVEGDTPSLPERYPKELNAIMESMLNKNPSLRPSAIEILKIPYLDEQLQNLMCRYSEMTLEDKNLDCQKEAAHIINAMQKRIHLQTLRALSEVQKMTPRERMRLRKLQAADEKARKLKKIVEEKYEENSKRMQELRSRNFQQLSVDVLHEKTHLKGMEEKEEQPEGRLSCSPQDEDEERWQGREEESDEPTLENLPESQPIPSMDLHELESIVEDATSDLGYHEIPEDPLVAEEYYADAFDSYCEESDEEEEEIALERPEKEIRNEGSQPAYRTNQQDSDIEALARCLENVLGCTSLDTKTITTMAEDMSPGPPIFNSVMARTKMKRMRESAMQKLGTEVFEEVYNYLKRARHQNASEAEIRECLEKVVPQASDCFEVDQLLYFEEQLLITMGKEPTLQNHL

[6] = target: Tyrosine-protein kinase JAK1 (Homo sapiens) (UniProt P23458); test: Inhibition of human recombinant JAK1 at 40 nM in presence of ATP by radiometric assay relative to control
[7] = target: Serine/threonine-protein kinase 33 (Homo sapiens) (UniProt Q9BYT3); test: Inhibition of human recombinant STK33 at 40 nM in presence of ATP by radiometric assay relative to control
[8] = target: T4, Serine/threonine-protein kinase Nek2 (Homo sapiens) (UniProt P51955); test: Inhibition of human recombinant NEK2 at 15 nM related to control ULK1
T4 sequence (whole entry): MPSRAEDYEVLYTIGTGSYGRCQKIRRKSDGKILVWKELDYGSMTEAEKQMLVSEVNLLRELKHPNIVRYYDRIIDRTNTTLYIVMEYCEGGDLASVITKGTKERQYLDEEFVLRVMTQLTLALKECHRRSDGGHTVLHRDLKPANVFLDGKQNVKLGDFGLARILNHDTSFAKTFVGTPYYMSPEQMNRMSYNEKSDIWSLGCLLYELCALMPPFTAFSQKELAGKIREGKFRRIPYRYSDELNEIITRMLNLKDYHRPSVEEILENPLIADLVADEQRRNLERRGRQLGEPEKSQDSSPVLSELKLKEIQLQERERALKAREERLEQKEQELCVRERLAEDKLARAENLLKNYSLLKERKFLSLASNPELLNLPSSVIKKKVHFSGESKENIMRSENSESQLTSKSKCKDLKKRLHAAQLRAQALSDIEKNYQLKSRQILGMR

Sequence of Ephrin type-A receptor 7 (Homo sapiens) (Q15375 28-998 limits assumed): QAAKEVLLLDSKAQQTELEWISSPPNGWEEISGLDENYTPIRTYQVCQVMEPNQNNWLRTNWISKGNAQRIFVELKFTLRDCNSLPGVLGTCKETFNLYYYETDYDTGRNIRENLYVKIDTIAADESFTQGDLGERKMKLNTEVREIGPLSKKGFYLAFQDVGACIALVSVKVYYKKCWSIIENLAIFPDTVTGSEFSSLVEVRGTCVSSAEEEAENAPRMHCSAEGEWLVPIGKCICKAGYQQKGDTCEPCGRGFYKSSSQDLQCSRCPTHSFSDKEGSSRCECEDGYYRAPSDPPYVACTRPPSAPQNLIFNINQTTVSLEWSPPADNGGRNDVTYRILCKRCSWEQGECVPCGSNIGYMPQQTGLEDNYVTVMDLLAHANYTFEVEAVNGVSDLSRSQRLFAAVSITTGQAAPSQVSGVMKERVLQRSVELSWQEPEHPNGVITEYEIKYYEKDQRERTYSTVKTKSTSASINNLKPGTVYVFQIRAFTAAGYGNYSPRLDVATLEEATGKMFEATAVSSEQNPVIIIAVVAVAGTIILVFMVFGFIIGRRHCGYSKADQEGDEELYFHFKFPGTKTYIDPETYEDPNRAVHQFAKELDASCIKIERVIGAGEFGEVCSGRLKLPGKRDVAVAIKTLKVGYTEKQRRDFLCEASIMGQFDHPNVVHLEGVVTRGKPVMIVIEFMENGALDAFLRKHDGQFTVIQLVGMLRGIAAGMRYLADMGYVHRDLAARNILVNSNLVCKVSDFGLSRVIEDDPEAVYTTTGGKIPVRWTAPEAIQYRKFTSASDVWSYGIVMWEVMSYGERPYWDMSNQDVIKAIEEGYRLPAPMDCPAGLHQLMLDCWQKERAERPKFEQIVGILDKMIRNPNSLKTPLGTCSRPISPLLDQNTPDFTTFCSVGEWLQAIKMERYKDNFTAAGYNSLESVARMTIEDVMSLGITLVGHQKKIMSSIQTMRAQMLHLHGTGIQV
Sequence of Serine/threonine-protein kinase 33 (Homo sapiens) (Q9BYT3 whole entry, looked up): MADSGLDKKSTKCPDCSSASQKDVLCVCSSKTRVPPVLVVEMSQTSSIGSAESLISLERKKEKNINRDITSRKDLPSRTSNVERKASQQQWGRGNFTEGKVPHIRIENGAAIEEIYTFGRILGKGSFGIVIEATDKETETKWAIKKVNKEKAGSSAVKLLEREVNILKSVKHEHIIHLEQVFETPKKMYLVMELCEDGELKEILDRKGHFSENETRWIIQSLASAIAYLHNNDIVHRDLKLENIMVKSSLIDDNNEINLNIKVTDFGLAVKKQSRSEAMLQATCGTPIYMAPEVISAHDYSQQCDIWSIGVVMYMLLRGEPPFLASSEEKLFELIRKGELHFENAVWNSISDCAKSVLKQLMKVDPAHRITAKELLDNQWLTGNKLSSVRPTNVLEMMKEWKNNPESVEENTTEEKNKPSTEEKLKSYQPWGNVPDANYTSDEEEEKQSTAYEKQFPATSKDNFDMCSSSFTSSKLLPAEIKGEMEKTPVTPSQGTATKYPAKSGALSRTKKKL
Sequence of Tyrosine-protein kinase JAK1 (Homo sapiens) (P23458 whole entry): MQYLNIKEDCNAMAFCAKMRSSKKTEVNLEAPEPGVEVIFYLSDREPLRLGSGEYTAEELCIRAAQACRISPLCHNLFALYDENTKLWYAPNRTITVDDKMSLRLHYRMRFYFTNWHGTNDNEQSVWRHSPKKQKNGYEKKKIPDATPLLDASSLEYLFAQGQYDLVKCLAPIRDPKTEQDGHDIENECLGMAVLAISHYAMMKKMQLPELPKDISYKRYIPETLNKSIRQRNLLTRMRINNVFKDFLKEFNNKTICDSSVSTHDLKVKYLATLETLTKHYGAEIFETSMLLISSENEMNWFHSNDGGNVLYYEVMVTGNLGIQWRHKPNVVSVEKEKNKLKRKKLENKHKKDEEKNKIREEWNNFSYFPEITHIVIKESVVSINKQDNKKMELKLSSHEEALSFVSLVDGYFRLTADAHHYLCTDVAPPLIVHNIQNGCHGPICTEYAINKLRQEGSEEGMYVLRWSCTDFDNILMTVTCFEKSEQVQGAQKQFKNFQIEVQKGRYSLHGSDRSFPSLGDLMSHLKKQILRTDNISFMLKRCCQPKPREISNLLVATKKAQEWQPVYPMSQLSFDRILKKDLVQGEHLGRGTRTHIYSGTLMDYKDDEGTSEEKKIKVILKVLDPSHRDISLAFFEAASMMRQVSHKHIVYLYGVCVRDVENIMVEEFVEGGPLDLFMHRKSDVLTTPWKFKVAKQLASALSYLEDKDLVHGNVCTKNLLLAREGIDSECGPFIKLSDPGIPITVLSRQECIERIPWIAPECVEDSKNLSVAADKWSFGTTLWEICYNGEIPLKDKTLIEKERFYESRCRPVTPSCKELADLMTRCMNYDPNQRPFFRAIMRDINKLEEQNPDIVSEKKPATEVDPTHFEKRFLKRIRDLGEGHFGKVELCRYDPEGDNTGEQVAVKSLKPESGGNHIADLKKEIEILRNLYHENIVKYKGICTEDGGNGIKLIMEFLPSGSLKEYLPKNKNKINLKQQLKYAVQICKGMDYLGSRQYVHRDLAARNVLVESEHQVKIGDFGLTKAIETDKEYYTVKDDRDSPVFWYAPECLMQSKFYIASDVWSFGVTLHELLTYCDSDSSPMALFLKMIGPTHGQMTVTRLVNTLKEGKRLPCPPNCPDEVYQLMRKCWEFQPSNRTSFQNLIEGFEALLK
Sequence of Ribosomal protein S6 kinase alpha-6 (Homo sapiens) (Q9UK32 whole entry): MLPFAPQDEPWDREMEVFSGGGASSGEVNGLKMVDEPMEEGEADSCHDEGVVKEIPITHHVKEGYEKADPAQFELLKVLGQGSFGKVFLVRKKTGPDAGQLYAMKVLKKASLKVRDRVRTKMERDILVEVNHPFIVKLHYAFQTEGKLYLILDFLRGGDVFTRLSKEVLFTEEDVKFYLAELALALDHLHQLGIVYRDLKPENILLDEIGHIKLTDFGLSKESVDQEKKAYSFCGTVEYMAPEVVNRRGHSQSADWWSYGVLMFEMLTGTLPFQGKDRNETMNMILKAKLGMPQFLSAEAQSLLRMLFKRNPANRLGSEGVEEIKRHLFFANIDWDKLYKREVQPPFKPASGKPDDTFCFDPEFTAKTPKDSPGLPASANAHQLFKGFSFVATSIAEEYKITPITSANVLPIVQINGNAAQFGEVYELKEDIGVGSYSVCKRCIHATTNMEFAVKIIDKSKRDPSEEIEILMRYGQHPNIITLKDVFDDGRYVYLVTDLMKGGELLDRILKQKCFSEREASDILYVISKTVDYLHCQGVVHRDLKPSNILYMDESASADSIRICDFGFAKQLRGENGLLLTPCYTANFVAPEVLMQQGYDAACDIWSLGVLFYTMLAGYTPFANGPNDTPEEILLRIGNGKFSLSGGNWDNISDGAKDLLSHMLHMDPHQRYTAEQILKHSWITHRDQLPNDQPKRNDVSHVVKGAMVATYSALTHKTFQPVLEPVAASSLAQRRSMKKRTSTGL

Row | fold change (FC) [1] | fold change (FC) [2] | fold change (FC) [3] | fold change (FC) [4] | inhibition [5] [%] | inhibition [6] [%] | inhibition [7] [%] | fold change (FC) [8] | SMILES
1 | 0.45 | 0.64 | 0 | 0 | 8 | 0 | 19 |  | O=C(N[C@@H](C1CC1)C(F)(F)F)c1cc(-c2cnn3cc(-c4ccc(F)cc4)cnc23)cs1
2 |  |  |  |  |  |  |  | 0.14 | CC(C)[C@H](NC(=O)c1cc(-c2cnn3cc(-c4ccc(OCCN5CCCCC5)cc4)cnc23)cs1)C(F)(F)F
